Results reported in patent publication EP0232650B1, “Analogues of hypocalcemic polypeptide compounds preserving the calcium content of the body, their manufacture, their use as medicaments and the compositions thereof” (MILHAUD, Gérard, priority 1985, dated 1989).
Where a SMILES comes first, the peptide text is derived from it. Bridges are numbered along the chain shown (N, C = ends).

Assay: Hypocalcemic activity in the fasted male rat (fall in calcemia one hour after intravenous injection, compared with Research Standard B)
Assay type: in vivo
Details: male rat 100-120 g, fasted 16 hours, peptide diluted in sodium acetate buffer 0,1 N pH 6 with 0,1 % albumin, versus "Research Standard B"
From the text: Elle est déterminée chez le rat mâle pesant de 100 à 120 g et soumis à un jeûne de 16 heures. L'activité est exprimée en unité MRC à partir de la baisse de la calcémie, mesurée une heure après l'injection intraveineuse de peptide à tester convenablement dilué en tampon acétate de sodium 0,1 N pH 6 et 0,1 % d'albumine, par comparaison avec l'activité du "Research Standard B" convenablement dilué. L'activité biologique du peptide de l'exemple 1 est supérieure à 4000 unités MRC par mg et celle du peptide de l'exemple 2 est supérieure à 4500 unités MRC par mg.

CC(C)C[C@H](NC(=O)[C@H](CCCCN)NC(=O)CNC(=O)[C@H](CC(C)C)NC(=O)[C@@H](NC(=O)[C@@H]1CSSC[C@H](N)C(=O)N[C@@H](CC(N)=O)C(=O)N[C@@H](CO)C(=O)N[C@@H](CC(C)C)C(=O)N[C@@H](CO)C(=O)N[C@@H]([C@@H](C)O)C(=O)N1)C(C)C)C(=O)N[C@@H](CO)C(=O)N[C@@H](CCC(N)=O)C(=O)N[C@@H](CCC(=O)O)C(=O)N[C@@H](CC(C)C)C(=O)N[C@@H](Cc1c[nH]cn1)C(=O)N[C@@H](CCCCN)C(=O)N[C@@H](CC(C)C)C(=O)N[C@@H](CCC(N)=O)C(=O)N[C@H](C(=O)N[C@@H](Cc1ccc(O)cc1)C(=O)N1CCC[C@H]1C(=O)N[C@@H](CCCNC(=N)N)C(=O)N[C@H](C(=O)N[C@@H](CC(=O)O)C(=O)N[C@H](C(=O)NCC(=O)N[C@@H](C)C(=O)NCC(=O)N[C@H](C(=O)N1CCC[C@H]1C(N)=O)[C@@H](C)O)C(C)C)[C@@H](C)O)[C@@H](C)O [exemple 1, Cys - Asn - Ser - Leu - Sers - Thr - Cys - Val - Leu - Glyio - Lys - Leu - Ser - Gin - Glu1s - Leu - His - Lys - Leu - Gln20- Thr - Tyr - Pro - Arg - Thr25- Asp - Val - Gly - Ala - Gly30 - Thr - Proamide] (H-CNSLSTCVLGKLSQELHKLQTYPRTDVGAGTP-NH2; disulfide 1-7)
activité biologique: > 4000 unités MRC par mg
